Where “and” joins values, the source holds several entries; their conditions need not be identical. Equal entries are not always repeated. Entries after “also recorded” stand apart in the source; their conditions may differ.
Tests used:
IadK2 mutants [1] = molecular target: IadK2 mutants (Variovorax paradoxus, UniProt T1X8R6, R199A); experiment: ITC, IAA binding to IadK2 mutants; set-up: species or system Variovorax paradoxus CL14; settings: Kd
Experimental: (§1) ITC experiments were performed using a MicroCal PEAQ-ITC system (Malvern). All the experiments were performed at […] in a buffer containing 25 mM Tris-HCl (pH 7.5) and 150 mM NaCl (unless otherwise stated). […] Data was analyzed using the MicroCal PEAQ-ITC analysis software. All the measurements were repeated at least 2 times.

IadK2 mutants [2] = molecular target: IadK2 mutants (Variovorax paradoxus, UniProt T1X8R6, S104V); experiment: ITC, IAA binding to IadK2 mutants; set-up: species or system Variovorax paradoxus CL14; settings: Kd
Sequence of IadK2 mutants (Variovorax paradoxus, UniProt T1X8R6, S104V) (T1X8R6 entry or part of it S104V): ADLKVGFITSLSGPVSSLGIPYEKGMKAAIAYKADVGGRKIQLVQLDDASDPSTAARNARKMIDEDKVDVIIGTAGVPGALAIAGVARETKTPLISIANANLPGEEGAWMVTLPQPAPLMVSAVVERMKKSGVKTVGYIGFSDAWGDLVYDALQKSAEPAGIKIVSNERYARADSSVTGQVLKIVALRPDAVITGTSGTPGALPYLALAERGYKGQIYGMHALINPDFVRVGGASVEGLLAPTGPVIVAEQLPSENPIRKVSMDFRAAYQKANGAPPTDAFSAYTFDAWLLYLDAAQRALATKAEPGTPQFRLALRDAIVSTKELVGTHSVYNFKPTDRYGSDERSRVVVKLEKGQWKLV
Experimental: as §1

IadK2 mutants [3] = molecular target: IadK2 mutants (Variovorax paradoxus, UniProt T1X8R6, S104V/W172L); experiment: ITC, IAA binding to IadK2 mutants; set-up: species or system Variovorax paradoxus CL14
Sequence of IadK2 mutants (Variovorax paradoxus, UniProt T1X8R6, S104V/W172L) (T1X8R6 entry or part of it S104V/W172L): as the sequence (T1X8R6 entry or part of it S104V) above, with W145L counted along it
Experimental: as §1

IadK2 mutants [4] = molecular target: IadK2 mutants (Variovorax paradoxus, UniProt T1X8R6, W172A); experiment: ITC, IAA binding to IadK2 mutants; set-up: species or system Variovorax paradoxus CL14; settings: IadK2 mutant W172A, replicates
Sequence of IadK2 mutants (Variovorax paradoxus, UniProt T1X8R6, W172A) (T1X8R6 entry or part of it W172A): as the sequence (T1X8R6 entry or part of it S104V) above, with V77S, W145A counted along it
Experimental: as §1

IadK2 mutants [5] = molecular target: IadK2 mutants (Variovorax paradoxus, UniProt T1X8R6, Y311A); experiment: ITC, IAA binding to IadK2 mutants; set-up: species or system Variovorax paradoxus CL14; settings: Kd
Sequence of IadK2 mutants (Variovorax paradoxus, UniProt T1X8R6, Y311A) (T1X8R6 entry or part of it Y311A): as the sequence (T1X8R6 entry or part of it S104V) above, with V77S, Y284A counted along it
Experimental: as §1

IadK2 mutants [6] = experiment: ITC, IAA binding to IadK2 mutants; set-up: species or system Variovorax paradoxus CL14; settings: IadK2 mutant W172L, replicates
Experimental: as §1

IadK3 [7] = molecular target: IadK3 (Variovorax paradoxus, UniProt A0A0H2LZ84); experiment: ITC, auxins binding to IadK3; set-up: species or system Variovorax paradoxus CL14
Sequence of IadK3 (Variovorax paradoxus, UniProt A0A0H2LZ84) (A0A0H2LZ84 entry or part of it): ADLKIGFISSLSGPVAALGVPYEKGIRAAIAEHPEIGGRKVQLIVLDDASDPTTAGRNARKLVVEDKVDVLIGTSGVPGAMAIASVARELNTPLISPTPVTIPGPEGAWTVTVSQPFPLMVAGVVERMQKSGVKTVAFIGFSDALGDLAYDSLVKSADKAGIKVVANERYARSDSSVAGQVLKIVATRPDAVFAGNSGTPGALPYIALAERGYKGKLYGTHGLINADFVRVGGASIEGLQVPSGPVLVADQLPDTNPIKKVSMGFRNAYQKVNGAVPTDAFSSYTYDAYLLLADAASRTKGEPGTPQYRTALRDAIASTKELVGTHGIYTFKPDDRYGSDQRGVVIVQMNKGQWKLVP
Experimental: as §1

IadK3 point mutants = experiment: IAA binding to IadK3 point mutants (response to reviewers); set-up: species or system Variovorax paradoxus CL14; settings: pocket residues replaced by those of IadK2
Excerpt: We have performed point mutations for substitute residues in the potential ligand binding pocket of AdgA (now named as IadK3) with corresponding amino acids of AdgB (now named as IadK2). […] One potential explanation could be that residues beyond the putative ligand binding pocket may regulate the conformation of IadK3 and ligand binding specificity. Further studies would be required to further examined the ligand binding specificity of IadK3.

IadC [8] = molecular target: T1, IadC (Variovorax paradoxus, UniProt C5CSP5); experiment: ITC, IAA binding to IadC; set-up: species or system Variovorax paradoxus CL14
T1 sequence (C5CSP5 1-330): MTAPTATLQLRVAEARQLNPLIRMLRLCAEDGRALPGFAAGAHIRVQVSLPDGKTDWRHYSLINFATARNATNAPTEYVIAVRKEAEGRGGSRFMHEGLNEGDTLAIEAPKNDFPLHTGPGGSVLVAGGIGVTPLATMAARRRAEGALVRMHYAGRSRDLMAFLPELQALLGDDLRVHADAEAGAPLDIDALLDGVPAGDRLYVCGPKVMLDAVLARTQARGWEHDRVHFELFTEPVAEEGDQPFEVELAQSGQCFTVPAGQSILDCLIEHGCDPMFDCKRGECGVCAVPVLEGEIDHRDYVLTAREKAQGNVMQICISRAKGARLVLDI
Experimental: as §1

IadF = IadF (Variovorax paradoxus, UniProt A0A0H2MF82); experiment: ITC, IAA binding to IadF; set-up: species or system Variovorax paradoxus CL14
Sequence of IadF (A0A0H2MF82 entry or part of it): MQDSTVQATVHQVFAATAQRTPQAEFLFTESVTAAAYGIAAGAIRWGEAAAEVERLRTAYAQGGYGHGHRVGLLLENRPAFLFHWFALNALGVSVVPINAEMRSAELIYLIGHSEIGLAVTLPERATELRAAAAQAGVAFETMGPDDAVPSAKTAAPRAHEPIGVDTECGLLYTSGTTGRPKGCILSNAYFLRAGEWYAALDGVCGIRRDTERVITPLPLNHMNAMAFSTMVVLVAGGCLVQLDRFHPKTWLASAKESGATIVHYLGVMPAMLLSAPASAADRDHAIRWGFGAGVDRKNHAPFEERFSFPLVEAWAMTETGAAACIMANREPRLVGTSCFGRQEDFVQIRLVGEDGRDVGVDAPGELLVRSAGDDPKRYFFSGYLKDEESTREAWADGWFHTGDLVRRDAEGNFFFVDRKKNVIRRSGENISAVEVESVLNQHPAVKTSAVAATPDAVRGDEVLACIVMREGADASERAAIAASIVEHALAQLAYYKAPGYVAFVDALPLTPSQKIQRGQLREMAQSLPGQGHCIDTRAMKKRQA
Experimental: as §1

IadG = experiment: ITC, IAA binding to IadG; set-up: species or system Variovorax paradoxus CL14
Experimental: as §1

IadH = IadH (Variovorax paradoxus, UniProt A0A0H2LZB5); experiment: ITC, IAA binding to IadH; set-up: species or system Variovorax paradoxus CL14
Sequence of IadH (A0A0H2LZB5 entry or part of it): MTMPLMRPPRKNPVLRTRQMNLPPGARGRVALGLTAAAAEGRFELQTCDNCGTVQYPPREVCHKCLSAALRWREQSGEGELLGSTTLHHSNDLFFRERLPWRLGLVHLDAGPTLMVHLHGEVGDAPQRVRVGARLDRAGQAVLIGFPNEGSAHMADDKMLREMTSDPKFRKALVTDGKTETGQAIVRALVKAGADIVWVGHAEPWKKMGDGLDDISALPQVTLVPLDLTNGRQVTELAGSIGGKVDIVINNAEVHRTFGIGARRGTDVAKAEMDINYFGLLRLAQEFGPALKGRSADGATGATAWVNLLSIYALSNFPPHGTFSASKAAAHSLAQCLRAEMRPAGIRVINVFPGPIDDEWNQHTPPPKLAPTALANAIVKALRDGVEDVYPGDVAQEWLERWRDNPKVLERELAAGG
Experimental: as §1

IadJ = IadJ (Variovorax paradoxus, UniProt A0A0H2M0A9); experiment: ITC, IAA binding to IadJ; set-up: species or system Variovorax paradoxus CL14
Sequence of IadJ (A0A0H2M0A9 entry or part of it): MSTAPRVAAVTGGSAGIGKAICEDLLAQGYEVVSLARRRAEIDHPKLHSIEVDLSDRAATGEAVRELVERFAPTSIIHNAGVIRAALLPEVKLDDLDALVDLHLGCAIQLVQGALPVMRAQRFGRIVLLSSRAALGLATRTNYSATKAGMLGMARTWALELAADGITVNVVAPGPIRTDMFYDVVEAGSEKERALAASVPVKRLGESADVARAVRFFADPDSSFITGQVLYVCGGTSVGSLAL
Experimental: as §1

IadK2 = experiment: Thermal shift assay (TSA), IadK2 with IAA and analogs; format: binding, Variovorax paradoxus CL14
Experimental: (§2) Ligands concentrations were tested at 2- to […] excess (10 to 1,000 μM) relative to the proteins (5 μM). The fluorescence dye SYPRO Orange at a final of 200-fold dilution was used to monitor the unfolding of proteins. The protein and ligand were incubated for 10 min at room temperature before the addition of SYPRO Orange dye. The QuantStudio 1 Plus real-time PCR system (Thermo Fisher) was used to control the temperature increasing from […] to […] with an increment of […] and to monitor the fluorescence (excitation: 520 ± 10 nm and emission: 558 ± 10 nm). Each tested group was run in triplicate and repeated. Data was imported to the Protein Thermal Shift software for analysis and plotting.

IadK3 [9] = experiment: Thermal shift assay (TSA), IadK3 with IAA and analogs; format: binding, Variovorax paradoxus CL14; settings: IadK3 with IAA, replicates
Experimental: as §2

IadC [10] = molecular target: T1, IadC; experiment: In vitro IAA transformation assay, IadC alone; format: biochemical, Variovorax paradoxus CL14; settings: result in words
Experimental: In vitro assay was performed to test the capability of IadC/D/E enzymes encoded by the iad operon in transforming IAA and analogs. The reaction mixture was composed of 100 mM Tris-HCl (pH7.5), 250 μM reduced NADH, 10 μM ammonium iron (II) sulfate, and 3 μM of each enzyme component. […] The mixture was vortexed periodically to introduce oxygen for the reaction and was boiled to stop the reaction. After pelleting the precipitants, the supernatant was collected and mixed with 2 volumes of Salkowski reagent made of 0.5 M ferric chloride and 35% perchloric acid for the quantification of residual substrate by measuring the adsorption at 530 nm.

Sequence of IadK2 mutants (Variovorax paradoxus, UniProt T1X8R6, R199A) (T1X8R6 entry or part of it R199A): as the sequence (T1X8R6 entry or part of it S104V) above, with V77S, R172A counted along it

## O=C(O)Cc1c[nH]c2ccccc12 [IAA, indole-3-acetic acid]
IadK2 mutants [1]; IadK2 R199A, IAA, mean ± SD
  Kd: 11.2 ± 1.8 µM
IadK2 mutants [1]; IadK2 mutant R199A, replicates
  Kd: 9.5 µM and 10.4 µM
IadK2 mutants [2]; IadK2 S104V, IAA, mean ± SD
  Kd: 1.1 ± 0.3 µM
IadK2 mutants [2]; IadK2 mutant S104V, replicates
  Kd: 0.88 µM and 0.9 µM and 1.5 µM
IadK2 mutants [3]; IadK2 mutant W172L/S104V, replicates
  Kd: > 100 µM
IadK2 mutants [3]; Kd, IadK2 W172L/S104V, IAA
  Kd: > 100 µM
IadK2 mutants [3]; Kd, IadK2 mutant W172L/S104V, replicates
  Kd: > 100 µM
IadK2 mutants [4]
  Kd: > 100 µM
IadK2 mutants [4]; Kd
  Kd: > 100 µM
IadK2 mutants [5]; IadK2 Y311A, IAA, mean ± SD
  Kd: 21 ± 3 µM
IadK2 mutants [5]; IadK2 mutant Y311A, replicates
  Kd: 17 µM and 24 µM and 22 µM
IadK2 mutants [6]
  Kd: weak binding
IadK3 [7]; IadK3, ITC, replicates, read-out: ITC binding
  Kd: > 100 µM
IadK3 [7]; result in words
  binding to IadK3 (ITC): no obvious binding
IadK3 point mutants
  binding of IAA to IadK3 point mutants: none of the mutations could make IadK3 bind with IAA
IadC [8]
  IAA binding (ITC): no binding detected
IadC [8]; ITC, replicates
  Kd: > 100 µM
IadF
  IAA binding (ITC): no binding detected
IadF; ITC, replicates
  Kd: > 100 µM
IadG
  IAA binding (ITC): no binding detected
IadG; ITC, replicates
  Kd: > 100 µM
IadH
  IAA binding (ITC): no binding detected
IadH; ITC, replicates
  Kd: > 100 µM
IadJ
  IAA binding (ITC): no binding detected
IadJ; ITC, replicates
  Kd: > 100 µM
IadK2; IadK2 WT, replicates, Fig 2E
  Tm change with IAA (TSA): 5.98
IadK2; IadK2 with IAA, replicates
  ΔTm: 5.98 °C
IadK2; result in words
  stabilization of IadK2 (melting temperature, TSA): substantially increased the melting temperature; also recorded: most significant stabilization effect
IadK3 [9]
  ΔTm: 0.997 °C and -0.4983 °C and -0.9966 °C
IadC [10]
  transformation by IadC alone: neither IadD/E nor IadC alone could catalyze the transformation

Source: paper PMC10374108, “Structural and biochemical characterization of the key components of an auxin degradation operon from the rhizosphere bacterium Variovorax” (PLOS Biology, 2023)
